Test results reported in patent US9260439B2, “Dihydropyrrolopyrimidine derivatives” (PFIZER INC., priority 2014, dated 2016).

Target: truncated PI3Kα (p110α/iSH2 p85α) (Homo sapiens (Human), UniProt P42336)
Assay: PI3KA_Act fluorescence polarization kinase assay (Ki)
Type: biochemical
Details: 1 mM ATP
How it was run: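 p110α/iSH2 p85α (0.5 nM) was reacted with 30 μM sonicated PIP2 in 50 mM HEPES pH 7.4, 150 mM NaCl, 5 mM MgCl2, 1 mM DTT and 0.05% CHAPS for 30 min at room temperature, then stopped with EDTA. PIP3 was detected by fluorescence polarization (GST-Grp1 PH domain/TAMRA-PIP3), and Ki came from a Morrison tight-binding fit.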

Sequence of truncated PI3Kα (p110α/iSH2 p85α) (P42336 whole entry, the tested form may be a part): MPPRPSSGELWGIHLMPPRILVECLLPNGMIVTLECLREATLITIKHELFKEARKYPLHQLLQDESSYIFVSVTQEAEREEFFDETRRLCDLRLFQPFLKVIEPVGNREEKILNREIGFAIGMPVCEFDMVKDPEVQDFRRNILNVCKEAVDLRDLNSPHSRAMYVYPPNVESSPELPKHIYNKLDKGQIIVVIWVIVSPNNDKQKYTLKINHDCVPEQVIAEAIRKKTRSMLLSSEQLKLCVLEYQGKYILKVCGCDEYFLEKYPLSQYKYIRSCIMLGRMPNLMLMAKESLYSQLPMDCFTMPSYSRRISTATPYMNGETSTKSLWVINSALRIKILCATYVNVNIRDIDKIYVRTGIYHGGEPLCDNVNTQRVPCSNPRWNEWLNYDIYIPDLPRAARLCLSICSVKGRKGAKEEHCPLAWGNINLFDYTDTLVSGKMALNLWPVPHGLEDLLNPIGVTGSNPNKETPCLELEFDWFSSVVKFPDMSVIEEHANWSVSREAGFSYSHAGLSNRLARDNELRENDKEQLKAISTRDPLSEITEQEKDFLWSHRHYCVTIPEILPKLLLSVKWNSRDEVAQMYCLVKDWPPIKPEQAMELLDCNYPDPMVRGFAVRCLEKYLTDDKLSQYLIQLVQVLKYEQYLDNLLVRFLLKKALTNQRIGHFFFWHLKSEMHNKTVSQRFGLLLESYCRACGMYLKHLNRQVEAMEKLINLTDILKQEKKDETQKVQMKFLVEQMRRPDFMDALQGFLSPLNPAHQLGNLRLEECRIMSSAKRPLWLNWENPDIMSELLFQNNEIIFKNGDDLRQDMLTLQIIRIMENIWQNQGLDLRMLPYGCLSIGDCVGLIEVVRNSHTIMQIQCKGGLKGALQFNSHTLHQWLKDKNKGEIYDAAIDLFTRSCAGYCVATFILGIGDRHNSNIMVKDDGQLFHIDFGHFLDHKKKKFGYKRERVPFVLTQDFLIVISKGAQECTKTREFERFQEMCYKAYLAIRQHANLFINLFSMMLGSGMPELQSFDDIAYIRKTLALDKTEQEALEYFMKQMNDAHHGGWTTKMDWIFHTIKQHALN

| Structure (SMILES) | PI3KA_Act Ki [nM] |
| --- | --- |
| CC(=O)N1CC[C@](C)(N2CCc3c(-c4cnc(N)nc4)nc(N4CCOC[C@@H]4C)nc32)C1 [Example 469, 1-[(3S)-3-{4-(2-aminopyrimidin-5-yl)-2-[(3S)-3-methylmorpholin-4-yl]-5,6-dihydro-7H-pyrrolo[2,3-d]pyrimidin-7-yl}-3-methylpyrrolidin-1-yl]ethanone] | 0.052 |
| CC(=O)N1CC[C@@](C)(N2CCc3c(-c4cnc(N)nc4)nc(N4CCOC[C@@H]4C)nc32)C1 [Example 470, 1-[(3R)-3-{4-(2-aminopyrimidin-5-yl)-2-[(3S)-3-methylmorpholin-4-yl]-5,6-dihydro-7H-pyrrolo[2,3-d]pyrimidin-7-yl}-3-methylpyrrolidin-1-yl]ethanone] | 0.070 |
| C[C@@H](O)C(=O)N1CC[C@](C)(N2CCc3c(-c4cnc(N)nc4)nc(N4CCOC[C@@H]4C)nc32)C1 [Example 471, (2R)-1-[(3S)-3-{4-(2-aminopyrimidin-5-yl)-2-[(3S)-3-methylmorpholin-4-yl]-5,6-dihydro-7H-pyrrolo[2,3-d]pyrimidin-7-yl}-3-methylpyrrolidin-1-yl]-2-hydroxypropan-1-one] | 0.037 |
| CC(C)[C@@H](O)C(=O)N1CC[C@](C)(N2CCc3c(-c4cnc(N)nc4)nc(N4CCOC[C@@H]4C)nc32)C1 [Example 472, (2R)-1-[(3S)-3-{4-(2-aminopyrimidin-5-yl)-2-[(3S)-3-methylmorpholin-4-yl]-5,6-dihydro-7H-pyrrolo[2,3-d]pyrimidin-7-yl}-3-methylpyrrolidin-1-yl]-2-hydroxy-3-methylbutan-1-one] | 0.044 |
| C[C@H]1COCCN1c1nc(-c2cnc(N)nc2)c2c(n1)N([C@@]1(C)CCN(C(=O)C(C)(C)O)C1)CC2 [Example 473, 1-[(3S)-3-{4-(2-aminopyrimidin-5-yl)-2-[(3S)-3-methylmorpholin-4-yl]-5,6-dihydro-7H-pyrrolo[2,3-d]pyrimidin-7-yl}-3-methylpyrrolidin-1-yl]-2-hydroxy-2-methylpropan-1-one] | 0.076 |
| C[C@H]1COCCN1c1nc(-c2cnc(N)nc2)c2c(n1)N([C@@]1(C)CCN(C(=O)C(C)(C)CO)C1)CC2.Cl [Example 474, 1-[(3S)-3-{4-(2-aminopyrimidin-5-yl)-2-[(3S)-3-methylmorpholin-4-yl]-5,6-dihydro-7H-pyrrolo[2,3-d]pyrimidin-7-yl}-3-methylpyrrolidin-1-yl]-3-hydroxy-2,2-dimethylpropan-1-one hydrochloride] | 0.045 |
| C[C@H](N)C(=O)N1CC[C@](C)(N2CCc3c(-c4cnc(N)nc4)nc(N4CCOC[C@@H]4C)nc32)C1.Cl [Example 475, (2S)-2-amino-1-[(3S)-3-{4-(2-aminopyrimidin-5-yl)-2-[(3S)-3-methylmorpholin-4-yl]-5,6-dihydro-7H-pyrrolo[2,3-d]pyrimidin-7-yl}-3-methylpyrrolidin-1-yl]propan-1-one hydrochloride] | 0.068 |
| C[C@@H](N)C(=O)N1CC[C@](C)(N2CCc3c(-c4cnc(N)nc4)nc(N4CCOC[C@@H]4C)nc32)C1.Cl [Example 476, (2R)-2-amino-1-[(3S)-3-{4-(2-aminopyrimidin-5-yl)-2-[(3S)-3-methylmorpholin-4-yl]-5,6-dihydro-7H-pyrrolo[2,3-d]pyrimidin-7-yl}-3-methylpyrrolidin-1-yl]propan-1-one hydrochloride] | <0.018 |
| CC[C@H](N)C(=O)N1CC[C@](C)(N2CCc3c(-c4cnc(N)nc4)nc(N4CCOC[C@@H]4C)nc32)C1.Cl [Example 477, (2S)-2-amino-1-[(3S)-3-{4-(2-aminopyrimidin-5-yl)-2-[(3S)-3-methylmorpholin-4-yl]-5,6-dihydro-7H-pyrrolo[2,3-d]pyrimidin-7-yl}-3-methylpyrrolidin-1-yl]butan-1-one hydrochloride] | 0.038 |
| CC[C@@H](N)C(=O)N1CC[C@](C)(N2CCc3c(-c4cnc(N)nc4)nc(N4CCOC[C@@H]4C)nc32)C1.Cl [Example 478, (2R)-2-amino-1-[(3S)-3-{4-(2-aminopyrimidin-5-yl)-2-[(3S)-3-methylmorpholin-4-yl]-5,6-dihydro-7H-pyrrolo[2,3-d]pyrimidin-7-yl}-3-methylpyrrolidin-1-yl]butan-1-one hydrochloride] | 0.026 |
| C[C@H]1COCCN1c1nc(-c2cnc(N)nc2)c2c(n1)N([C@@]1(C)CCN(C(=O)[C@@H](N)CF)C1)CC2.Cl [Example 479, (2R)-2-amino-1-[(3S)-3-{4-(2-aminopyrimidin-5-yl)-2-[(3S)-3-methylmorpholin-4-yl]-5,6-dihydro-7H-pyrrolo[2,3-d]pyrimidin-7-yl}-3-methylpyrrolidin-1-yl]-3-fluoropropan-1-one hydrochloride] | 0.026 |
| C[C@H]1COCCN1c1nc(-c2cnc(N)nc2)c2c(n1)N([C@@]1(C)CCN(C(=O)[C@H](N)CF)C1)CC2.Cl [Example 480, (2S)-2-amino-1-[(3S)-3-{4-(2-aminopyrimidin-5-yl)-2-[(3S)-3-methylmorpholin-4-yl]-5,6-dihydro-7H-pyrrolo[2,3-d]pyrimidin-7-yl}-3-methylpyrrolidin-1-yl]-3-fluoropropan-1-one hydrochloride] | <0.018 |
| C[C@H]1COCCN1c1nc(-c2cnc(N)nc2)c2c(n1)N([C@@]1(C)CCN(C(=O)[C@@H](N)C3CC3)C1)CC2.Cl [Example 481, (2S)-2-amino-1-[(3S)-3-{4-(2-aminopyrimidin-5-yl)-2-[(3S)-3-methylmorpholin-4-yl]-5,6-dihydro-7H-pyrrolo[2,3-d]pyrimidin-7-yl}-3-methylpyrrolidin-1-yl]-2-cyclopropylethanone hydrochloride] | 0.149 |
| C[C@H]1COCCN1c1nc(-c2cnc(N)nc2)c2c(n1)N([C@@]1(C)CCN(C(=O)[C@H](N)C3CC3)C1)CC2.Cl [Example 482, (2R)-2-amino-1-[(3S)-3-{4-(2-aminopyrimidin-5-yl)-2-[(3S)-3-methylmorpholin-4-yl]-5,6-dihydro-7H-pyrrolo[2,3-d]pyrimidin-7-yl}-3-methylpyrrolidin-1-yl]-2-cyclopropylethanone hydrochloride] | 0.022 |
| C[C@H]1COCCN1c1nc(-c2cnc(N)nc2)c2c(n1)N([C@@]1(C)CCN(C(=O)CN(C)C)C1)CC2 [Example 483, 1-[(3S)-3-{4-(2-aminopyrimidin-5-yl)-2-[(3S)-3-methylmorpholin-4-yl]-5,6-dihydro-7H-pyrrolo[2,3-d]pyrimidin-7-yl}-3-methylpyrrolidin-1-yl]-2-(dimethylamino)ethanone] | 0.049 |
| C[C@H]1COCCN1c1nc(-c2cnc(N)nc2)c2c(n1)N([C@@]1(C)CCN(C(=O)C(C)(C)CN)C1)CC2.Cl [Example 484, 3-amino-1-[(3S)-3-{4-(2-aminopyrimidin-5-yl)-2-[(3S)-3-methylmorpholin-4-yl]-5,6-dihydro-7H-pyrrolo[2,3-d]pyrimidin-7-yl}-3-methylpyrrolidin-1-yl]-2,2-dimethylpropan-1-one hydrochloride] | <0.018 |
| C[C@H]1COCCN1c1nc(-c2cnc(N)nc2)c2c(n1)N([C@@]1(C)CCN(C(=O)[C@](C)(N)CO)C1)CC2.Cl [Example 485, (2R)-2-amino-1-[(3S)-3-{4-(2-aminopyrimidin-5-yl)-2-[(3S)-3-methylmorpholin-4-yl]-5,6-dihydro-7H-pyrrolo[2,3-d]pyrimidin-7-yl}-3-methylpyrrolidin-1-yl]-3-hydroxy-2-methylpropan-1-one hydrochloride] | <0.018 |
| C[C@H]1COCCN1c1nc(-c2cnc(N)nc2)c2c(n1)N([C@@]1(C)CCN(C(=O)[C@@](C)(N)CO)C1)CC2.Cl [Example 486, (2S)-2-amino-1-[(3S)-3-{4-(2-aminopyrimidin-5-yl)-2-[(3S)-3-methylmorpholin-4-yl]-5,6-dihydro-7H-pyrrolo[2,3-d]pyrimidin-7-yl}-3-methylpyrrolidin-1-yl]-3-hydroxy-2-methylpropan-1-one hydrochloride] | <0.018 |
| C[C@H]1COCCN1c1nc(-c2cnc(N)nc2)c2c(n1)N([C@@]1(C)CCN(C(=O)C(C)(N)CO)C1)CC2.Cl (stereo partly drawn) [Example 487, 2-amino-1-[(3S)-3-{4-(2-aminopyrimidin-5-yl)-2-[(3S)-3-methylmorpholin-4-yl]-5,6-dihydro-7H-pyrrolo[2,3-d]pyrimidin-7-yl}-3-methylpyrrolidin-1-yl]-3-hydroxy-2-methylpropan-1-one hydrochloride] | 0.011 |
| CNC(C)(C)C(=O)N1CC[C@](C)(N2CCc3c(-c4cnc(N)nc4)nc(N4CCOC[C@@H]4C)nc32)C1.Cl [Example 488, 1-[(3S)-3-{4-(2-aminopyrimidin-5-yl)-2-[(3S)-3-methylmorpholin-4-yl]-5,6-dihydro-7H-pyrrolo[2,3-d]pyrimidin-7-yl}-3-methylpyrrolidin-1-yl]-2-methyl-2-(methylamino)propan-1-one hydrochloride] | <0.018 |
| C[C@H]1COCCN1c1nc(-c2cnc(N)nc2)c2c(n1)N([C@@]1(C)CCN(C(=O)C(F)(F)CN)C1)CC2.Cl [Example 489, 3-amino-1-[(3S)-3-{4-(2-aminopyrimidin-5-yl)-2-[(3S)-3-methylmorpholin-4-yl]-5,6-dihydro-7H-pyrrolo[2,3-d]pyrimidin-7-yl}-3-methylpyrrolidin-1-yl]-2,2-difluoropropan-1-one hydrochloride] | <0.018 |
| C[C@H]1COCCN1c1nc(-c2cnc(N)nc2)c2c(n1)N([C@@]1(C)CCN(C(=O)[C@@H](N)C(F)(F)F)C1)CC2.Cl [Example 490, (2R)-2-amino-1-[(3S)-3-{4-(2-aminopyrimidin-5-yl)-2-[(3S)-3-methylmorpholin-4-yl]-5,6-dihydro-7H-pyrrolo[2,3-d]pyrimidin-7-yl}-3-methylpyrrolidin-1-yl]-3,3,3-trifluoropropan-1-one hydrochloride] | <0.018 |
